This is an account of results in US20090275632A1, “Methods of diagnosis and treatment” (OncoMethylome Sciences SA, priority 2006, published 2009).

The test system of one assay is miR-124a CpG island. Kind of assay: Chromatin immunoprecipitation assay for histone modification marks and methyl-CpG binding domain proteins. In kind it is cell-based, human. To be noted: HCT-116 cells, 5-aza-2-deoxycytidine (1 µM) for 72 h. The method, then:
Standard ChIP assays were performed as previously described (3). In brief, cells were treated with 1% formaldehyde for 15 min. Then, chromatin was sheared with a Bioruptor™ (Diagenode) to an average length of 0.4-0.8 kb for this analysis. The following antibodies were used: anti-MeCP2 (ab3752), anti-MBD2 (ab3754), and anti-trimethyl-K4 histone H3 (ab8580) (ab1220) (Abcam) and anti-acetyl H3 (06-599) and anti-acetyl H4 (06-598) (Upstate biotechnologies). PCR amplification was performed in 20 μl with specific primers for each of the analyzed promoters.
for miR-124a1 5′-CM AGA GCC TTT GGA AGA CG-3′ (sense) (SEQ ID NO: 40) and 5′-GGAAGAGGGGTGGGTAGAAG-3′ (antisense) (SEQ ID NO: 41), for miR-124a2 5′-GCGTGGTCCTTAAAAACCTG-3′ (sense) (SEQ ID NO: 42) and 5′-CCATGCCATTTACAGCACAC-3′ (antisense) (SEQ ID NO: 43); and for miR-124a3 5′-GGA GM GTG TGG GCT CCT C-3′ (sense) (SEQ ID NO: 44) and 5′-AAT CM GGT CCG CTG TGA AC-3′ (antisense) (SEQ ID NO:45). For each promoter, the sensitivity of PCR amplification was evaluated on serial dilutions of total DNA collected after sonication (input fraction). PCR amplifications were carried out with a variable number of cycles at 94° C. for 30 s, 60° C. for 30 s and 72° C. for 30 s. The amplified DNA was separated on 2% agarose gel and visualized with ethidium bromide.

The test system of assay [1] is miR-124a. Kind of assay: Expression of precursor miR-124a by conventional RT-PCR in HCT-116 cells. In kind it is cell-based, human. The note with it: 5-aza-2-deoxycytidine (1 µM) for 72 h. The procedure: (§1) GAPDH was used as internal control. PCR products were analyzed in a 3% agarose gel. Realtime PCR analysis of miRNAs was performed as previously described (Biotechniques 39:519-525). In brief, total RNA was isolated from cell lines or tissues using Trizol reagent and the small RNA fraction was further isolated using the miRVANA kit (Ambion). 500 ng of the small RNA fraction was polyadenylated by poly(A) polymerase (PAP, Ambion) at 37° C. for 1 hr in a 6 uL reaction. After phenol-chloroform extraction and ethanol precipitation the polyadenylated small RNAs were reversed transcribed according to the manufacturer's protocols using 200U SuperScript-II Reverse Transcriptase (RT, Invitrogen) and 0.5 ug poly(T) adapter (GCG AGC ACA GM TTAATACGACTCACTATAGGTTTTTTTTTT TTV N) (SEQ ID NO:36). The small cDNAs were then treated with RNAse H at 37° C. for 1 hr and finally diluted 240 fold. Negative controls were included in both PAP and RT reactions. Moreover, two additional RT reactions were performed using half and double the input of polyadenylated small RNAs to ensure the linearity of the reverse transcription step. Finally, the melting temperature for each miRNA was experimentally determined from the thermal dissociation curves using ABI Prism 7900HT (Applied Biosystems, Foster City, Calif., USA). […]

The subject of assay [2] is miR-124a. Kind of assay: Expression of mature miR-124a by quantitative RT-PCR in HCT-116 cells. It counts as cell-based, human. To be noted: 5-aza-2-deoxycytidine (1 µM) for 72 h. The procedure: as §1, with “Moreover, two additional RT reactions were performed using half and double the input of polyadenylated small RNAs to ensure the linearity of the reverse transcription step.” left out
Each set of PCR reactions included a dilution series of a reference cDNA to be used for quantification.

In the next assay the test system is CDK6 mRNA. Kind of assay: RT-PCR analyses of CDK6 mRNA in HCT-116 cells. To be noted: AZA 1 µM 72 h, miR-124a precursor 100 nM RNA duplexes, 48 h after transfection. It counts as cell-based, human.
Assay [3] has as its system miR-124a. Kind of assay: Expression analyses of miR-124a by RT-PCR in MCF-7 breast cancer cell line. To be noted: MCF-7 cells (miR-124a methylated).
The test system of the next assay is CDK6. Kind of assay: Western blot for CDK6 in HCT-116 cells. In kind it is cell-based, human. To be noted: AZA 1 µM 72 h, miR-124a precursor 100 nM RNA duplexes, 48 h after transfection. The source says: (§2) Analyses of CDK6 and phosphorylated Rb expression by Western blot, immunohistochemistry and RT-PCR. We collected cells by centrifugation and washed cell pellets twice with phosphate-buffered saline buffer. Total extracts were fractionated on a SDS-PAGE gel and transferred to a polyvinylidene difluoride membrane with […] (Immobilon PSQ, Millipore). The membranes were blocked in 5% milk PBS-T (phosphate-buffered saline with 0.1% Tween-20) and immunoprobed with antibodies against CDK6 (1:1000; Cell Signaling) and P-Rb-S807/811 (1:1000; Cell Signaling). An antibody to β-actin (1:5000; Sigma) was used as a loading control. Immunoreactive bands were visualized using a chemiluminescent substrate (Amersham) after incubation of the membrane with secondary antibodies conjugated to horseradish peroxidase.
On the technique in general: A western blot detects proteins with antibodies after separation by electrophoresis.

Another assay deals with Rb. The assay can be described thus: Western blot for phosphorylated Rb (P-Rb-S807/811) in HCT-116 cells. In kind it is cell-based, human. The note with it: AZA 1 µM 72 h, miR-124a precursor 100 nM RNA duplexes, 48 h after transfection.
Excerpt: as §2

The mark [4] stands for this setting: listed as DNA demethylating agent.

Turning to `Nc1ncn([C@H]2C[C@H](O)[C@@H](CO)O2)c(=O)n1` [AZA, 5-aza-2′-deoxycytidine], the “histone modification marks linked to transcriptional activity (acetylation of histones H3 and H4, trimethylation of lysine 4 of histone H3) in the miR-124a CpG island” value in the assay with miR-124a CpG island was “the opposite scenario is observed”; in the assay with miR-124a CpG island (listed as demethylating agent), “emergence of the histone marks of active transcription”. The entries for the “occupancy of the miR-124a CpG island by MBDs (MeCP2 and MBD2)” value in the assay with miR-124a CpG island and in the assay with miR-124a CpG island (listed as demethylating agent) were “the opposite scenario is observed” and “release of binding by MBDs”, respectively. In addition, the “precursor miR-124a expression” value in the assay with miR-124a [1] was “miR-124a upregulation”; with miR-124a [1] (setting [4]) it was “restored”. The “mature miR-124a expression” value in the assay on miR-124a [2] is listed as “miR-124a upregulation”; in the assay with miR-124a [2] (setting [4]), “restored”. Also, the “CDK6 mRNA expression level” value with CDK6 mRNA is listed as “do not demonstrate any change”; with CDK6 mRNA (listed as demethylating agent), “no difference”. Also, in the assay on miR-124a [3], the miR-124a expression result is given as “miR-124a upregulation”. Also, the CDK6 protein level entry in the assay on CDK6 is “reduction in CDK6 levels”; in the assay with CDK6 (listed as demethylating agent), “CDK6 downregulation”. The “phosphorylation of Rb in the residues 807 and 811” value with Rb (setting [4]) is listed as “hypophosphorylated”; with Rb (listed as demethylating drug) it was “reduced Rb phosphorylation”.
